For one substance, IC50 results are on record in patent EP0312283A2, “Di-or tripeptide renin inhibitors containing lactam conformational restrictions in ACHPA” (Merck & Co., Inc., priority 1987, dated 1989).

pIC50: −log10 of the molar value.

For this assay, the system named is human plasma renin. Nature of the assay: In vitro inhibition of human plasma renin (Boger et al. assay). It is filed as biochemical. How it is done: In vitro inhibition of human plasma renin was measured as described by Boger, et al., J. Med. Chem (1985) 28, 1779.
They were analyzed for purity by HPLC (30 minute gradient, 5% CH3CN-H2O to 95% CH3CN-H20 buffered with 0.1% H3PO4; C18 reverse phase column), and were analyzed for composition by C, H, and N combustion analysis. IC50 values were measured in vitro using the human plasma renin assay, as described by Boger et al. J. Med. Chem. (1985) 28, 1779.

By pIC50 is commonly meant the negative decadic logarithm of the IC50, by convention in mol/L. Read a high pIC50 as a low IC50. Turning to “Boc-Phe-His-(ACHP-1-(2-Hydroxyethyl)-2-Pyrrolidinone [Example 3H]”, the pIC50 was 8.11.
